Source: patent US7763733B2, “Ritonavir analogous compound useful as retroviral protease inhibitor, preparation of the ritonavir analogous compound and pharmaceutical composition for the ritonavir analogous compound” (Cristalia Produtos Quimicos Farmaceuticos Ltda., priority 2004, dated 2010)

Tests used:
HIV pNL4-3 (subtype B) = experiment: Antiviral activity in HIV-infected MT-4 cells (MTT cellular viability); format: cell-based; conditions: MOI 0.002, MTT staining at the sixth day, ritonavir as internal control
Procedure: The anti-HIV activity of the compound of the present invention was determined using MT-4 cells, a lymphocytic cell line established in culture, CD4^+, and expressing HIV-1 […] co-receptors. The cells were infected using a plate having 96 wells containing 10^4 cells/well. The cells were infected with MOI (Multiplicity Of Infection) of 0.002 (NIH requirement=0.001 to 0.01). The drugs were initially diluted in dimethyl sulfoxide (DMSO) to a final concentration of 20 mM and later in RPMI 1640 base medium to a concentration of 200 μM. […] The culture medium utilized for this procedure was RPMI 1640 including 10% bovine fetal serum, antibiotics […]/penicillin and L-glutamine. The most concentrated well has a final concentration of 10.000 μM being followed by the indicated dilutions: 2.0 μM; 0.400 μM; 0.0800 μM; 0.016 μM; 0.0032 μM; 0.00064 μM and 0.000128 μM. The ninth well is considered as the infection control, without adding the drug. Each line having […] infected wells is produced in triplicate for later statistics analyses. […]
The infection test is maintained in an incubator having 5% of CO2 at 37° C. and monitored daily using phase optical microscopy method to verify appearance of syncytia (multinuclear cells). […]

HIV = conditions: anti-HIV activity test, values as described in U.S. Pat. No. 5,541,206; cited from earlier work

| Compound | anti-HIV activity (EC50, FIG. 2) in comparison with ritonavir and analogs (HIV pNL4-3 (subtype B)) | IC50 (HIV) [µM] |
| --- | --- | --- |
| CC(C)c1nc(CN(C)C(=O)N[C@H](C(=O)N[C@@H](Cc2ccccc2)C[C@H](O)[C@H](Cc2ccccc2)NC(=O)[C@@H](NC(=O)N(C)Cc2csc(C(C)C)n2)C(C)C)C(C)C)cs1 [example 1C, (2S,3S,5S)-2,5-bis-[N—[N—[[N-methyl-N-[(2-isopropyl-4-thiazolyl)methyl]amino]carbonyl]valinyl]amino]-1,6-diphenyl-3-hydroxyhexane] | surprisingly superior activity | – |
| CC(C)Cc1nc(CN(C)C(=O)N[C@H](C(=O)N[C@@H](Cc2ccccc2)C[C@H](O)[C@H](Cc2ccccc2)NC(=O)OCc2cncs2)C(C)C)cs1 [example 59G] | – | 0.11 to 0.13 |
| CC(C)c1nc(CN(C)C(=O)NC(C(=O)NC(Cc2ccccc2)CC(O)C(Cc2ccccc2)NC(=O)OCc2cnc(C(C)C)s2)C(C)C)cs1 (stereo not shown) [example 45C] | – | 0.036 to 0.04 |
| CC(C)c1nc(CN(C)C(=O)NC(C(=O)NC(Cc2ccccc2)CC(O)C(Cc2ccccc2)NC(=O)OCc2cncs2)C(C)C)cs1 [ritonavir, (2S,3S,5S)-5-[N—[N—[[N-methyl-N-[(2-isopropyl-4-thiazolyl)methyl]amino]carbonyl]vanilyl]amino-2-[N [(5-thiazolyl)methoxycarbonyl]amino-1,6-diphenyl-3-hydroxyhexane] | – | 0.025 to 0.04 |
